ChEMBL document CHEMBL1201862, “PubChem BioAssay data set” (2004)
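Following 48 hours of exposure in 96-well plates, responses at five concentrations were used to interpolate endpoints linearly. GI50 marks 50% less growth.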 Active and inactive are the calls of the source. Rule as the data show it: active = GI50 up to about 1.1 µM and inactive = higher.

Columns and labels:
Assay in all cases: growth of human tumour cells (NCI), 48 h
[1] = system: K562
[2] = system: U-251
[3] = system: DU-145
[4] = system: LOX IMVI
[5] = system: TK-10
[6] = system: MOLT-4
[7] = system: RPMI-8226
[8] = system: MDA-N
[9] = system: CAKI-1
[10] = system: SK-MEL-2
[11] = system: NCI-H460
[12] = system: HOP-92
[13] = system: SF-539
[14] = system: SW-620
[15] = system: SF-295
[16] = system: NCI-H522
[17] = system: COLO 205
[18] = system: Hs-578T
[19] = system: UACC-62
[20] = system: SR

SMILES | GI50 [1] | GI50 [2] | GI50 [3] | GI50 [4] | GI50 [5] | GI50 [6] | GI50 [7] | GI50 [8] | GI50 [9] | GI50 [10] | GI50 [11] | GI50 [12] | GI50 [13] | GI50 [14] | GI50 [15] | GI50 [16] | GI50 [17] | GI50 [18] | GI50 [19] | GI50 [20]
CCN1CC2(C)CCC(OC)C34C5CC6CCC(O)(C5C(=O)O6)C(C(O)C23)C14 (stereo unspecified) | > 100 µM (inactive) | > 100 µM (inactive) | > 100 µM (inactive) | > 100 µM (inactive) | > 100 µM (inactive) | > 100 µM (inactive) | > 100 µM (inactive) | > 100 µM (inactive) | > 100 µM (inactive) | > 100 µM (inactive) | > 100 µM (inactive) | > 100 µM (inactive) | > 100 µM (inactive) | > 100 µM (inactive) | > 100 µM (inactive) | > 100 µM (inactive) | > 100 µM (inactive) | > 100 µM (inactive) | > 100 µM (inactive) | –
CC(Cn1c2c(c3cc(O)ccc31)CCc1ccc(O)cc1-2)N(C)C (stereo unspecified) | 34.5 µM (inactive) | 28.2 µM (inactive) | – | 23.4 µM (inactive) | 18.7 µM (inactive) | 35.6 µM (inactive) | 38.3 µM (inactive) | 18.8 µM (inactive) | 22.4 µM (inactive) | 16.4 µM (inactive) | 15.1 µM (inactive) | – | 16.1 µM (inactive) | 20.3 µM (inactive) | 18.2 µM (inactive) | – | – | 17.1 µM (inactive) | 15.8 µM (inactive) | 48.2 µM (inactive)
O=C(c1ccccc1)c1cc(-c2ccccc2)c(-c2ccccc2)[nH]c(=O)c1=O | 32.6 µM (inactive) | 37.8 µM (inactive) | – | 34.5 µM (inactive) | 56.2 µM (inactive) | 24.2 µM (inactive) | 23.9 µM (inactive) | 38.5 µM (inactive) | 30.9 µM (inactive) | 24.3 µM (inactive) | 34 µM (inactive) | 41.1 µM (inactive) | 31.3 µM (inactive) | 37.2 µM (inactive) | 40.7 µM (inactive) | 22.1 µM (inactive) | 27.2 µM (inactive) | 40.9 µM (inactive) | 25.1 µM (inactive) | 24.1 µM (inactive)
N#CC(C#N)=c1c(=O)c2c3ccccc3cc3cccc1c32 | – | > 100 µM (inactive) | > 100 µM (inactive) | > 100 µM (inactive) | – | 70.3 µM (inactive) | > 100 µM (inactive) | > 100 µM (inactive) | > 100 µM (inactive) | 92.3 µM (inactive) | > 100 µM (inactive) | > 100 µM (inactive) | – | > 100 µM (inactive) | – | – | > 100 µM (inactive) | 31.5 µM (inactive) | > 100 µM (inactive) | –
c1csc(-c2ccc(-c3ccc(-c4cccs4)s3)s2)c1 | – | > 100 µM (inactive) | > 100 µM (inactive) | > 100 µM (inactive) | > 100 µM (inactive) | > 100 µM (inactive) | > 100 µM (inactive) | > 100 µM (inactive) | > 100 µM (inactive) | > 100 µM (inactive) | > 100 µM (inactive) | – | > 100 µM (inactive) | > 100 µM (inactive) | > 100 µM (inactive) | > 100 µM (inactive) | > 100 µM (inactive) | > 100 µM (inactive) | > 100 µM (inactive) | > 100 µM (inactive)
Cc1nc2cc(C(F)(F)F)ccc2[nH]c1=O | > 100 µM (inactive) | > 100 µM (inactive) | > 100 µM (inactive) | > 100 µM (inactive) | > 100 µM (inactive) | > 100 µM (inactive) | > 100 µM (inactive) | > 100 µM (inactive) | > 100 µM (inactive) | > 100 µM (inactive) | > 100 µM (inactive) | > 100 µM (inactive) | > 100 µM (inactive) | > 100 µM (inactive) | > 100 µM (inactive) | – | > 100 µM (inactive) | 21.9 µM (inactive) | 87.7 µM (inactive) | –
CCOc1cc2c(cc1O)CC[C@@H]1[C@@H]2CC[C@]2(C)C(OS(=O)OC3CC[C@@H]4[C@H]5CCc6cc(O)c(OCC)cc6[C@@H]5CC[C@@]34C)CC[C@@H]12 (stereo partly specified) | 0.316 µM (active) | 0.33 µM (active) | 1.62 µM (inactive) | 0.752 µM (active) | 19.7 µM (inactive) | 1.14 µM (inactive) | 1.63 µM (inactive) | 0.117 µM (active) | 2.45 µM (inactive) | 0.92 µM (active) | 0.581 µM (active) | 0.363 µM (active) | 0.48 µM (active) | 0.355 µM (active) | 0.982 µM (active) | – | 23.1 µM (inactive) | 3.25 µM (inactive) | 1.19 µM (inactive) | 0.182 µM (active)
CCOC(=O)c1cn2c(n1)sc1cc(OC)ccc12 | 3.75 µM (inactive) | 2.81 µM (inactive) | 4.07 µM (inactive) | 18.2 µM (inactive) | > 100 µM (inactive) | 4.61 µM (inactive) | 4.08 µM (inactive) | 2.6 µM (inactive) | 13.5 µM (inactive) | 14.9 µM (inactive) | 29.8 µM (inactive) | > 100 µM (inactive) | 2.95 µM (inactive) | 3.08 µM (inactive) | 7.18 µM (inactive) | 18 µM (inactive) | 3.4 µM (inactive) | 21 µM (inactive) | 8.63 µM (inactive) | –
Cc1cc2c(cc1Cl)SC(NNC(=O)c1ccncc1)=NS2(=O)=O | > 10 µM (inactive) | > 10 µM (inactive) | > 10 µM (inactive) | > 10 µM (inactive) | > 10 µM (inactive) | > 10 µM (inactive) | > 10 µM (inactive) | > 10 µM (inactive) | > 10 µM (inactive) | > 10 µM (inactive) | > 10 µM (inactive) | – | > 10 µM (inactive) | > 10 µM (inactive) | > 10 µM (inactive) | > 10 µM (inactive) | > 10 µM (inactive) | > 10 µM (inactive) | > 10 µM (inactive) | –
CCOC(=O)CCC(NC(=O)c1ccc(CNc2nc3ccccc3nc2C(=O)OCC)cc1)C(=O)OCC (stereo unspecified) | > 100 µM (inactive) | 21.8 µM (inactive) | > 100 µM (inactive) | > 100 µM (inactive) | > 100 µM (inactive) | > 100 µM (inactive) | > 100 µM (inactive) | > 100 µM (inactive) | – | > 100 µM (inactive) | – | > 100 µM (inactive) | – | > 100 µM (inactive) | > 100 µM (inactive) | > 100 µM (inactive) | > 100 µM (inactive) | > 100 µM (inactive) | > 100 µM (inactive) | –
COc1cc(/C=C2\C[C@H]3[C@@H]4CC=C5C[C@@H](N6CCCC6)CC[C@]5(C)[C@H]4CC[C@]3(C)[C@H]2OC(C)=O)cc(OC)c1OC | – | 15.8 µM (inactive) | 17.3 µM (inactive) | – | 20.6 µM (inactive) | 6.38 µM (inactive) | 5.27 µM (inactive) | 10.9 µM (inactive) | 17 µM (inactive) | 17.7 µM (inactive) | – | 10.3 µM (inactive) | – | 14.8 µM (inactive) | 12.8 µM (inactive) | 16.7 µM (inactive) | 12.9 µM (inactive) | 17.8 µM (inactive) | 17.5 µM (inactive) | –
